Values of other authors in patent USRE46284E1, “Method of administrating an anticancer drug containing α, α, α-trifluorothymidine and thymidine phosphorylase inhibitor” (TAIHO PHARMACEUTICAL CO., LTD., priority 2005, dated 2017).

Settings: human, intravenous administration

O=c1[nH]c(=O)n([C@H]2C[C@H](O)[C@@H](CO)O2)cc1C(F)(F)F [FTD, α,α,α-trifluorothymidine]
half-life in the blood: approximately 12 minutes
